From ChEMBL document CHEMBL1201862, “PubChem BioAssay data set” (2004)
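Grown in 96-well plates, cells were treated for 48 hours with each compound at five concentrations. Insufficient inhibition: endpoint recorded as highest concentration tested. GI50 = concentration required for 50% inhibition of growth.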 Active and inactive are the calls of the source. No stated cut-off is given here; in the data, active = GI50 up to about 1.1 µM and inactive = higher.

How the values were obtained:
Experiment in all cases: inhibition of tumour cell growth, NCI panel, 48 h
[1] = tested on: A549
[2] = tested on: CCRF-CEM
[3] = tested on: DU-145
[4] = tested on: EKVX
[5] = tested on: HCT-15
[6] = tested on: HL-60
[7] = tested on: HOP-92
[8] = tested on: HT-29
[9] = tested on: LOX IMVI
[10] = tested on: MDA-MB-435
[11] = tested on: MOLT-4
[12] = tested on: NCI-H460
[13] = tested on: OVCAR-5
[14] = tested on: RXF 393
[15] = tested on: SF-295
[16] = tested on: SK-MEL-2
[17] = tested on: SN12C
[18] = tested on: T47D
[19] = tested on: TK-10
[20] = tested on: UACC-62

Structure (SMILES) | GI50 [1] | GI50 [2] | GI50 [3] | GI50 [4] | GI50 [5] [µM] | GI50 [6] | GI50 [7] | GI50 [8] | GI50 [9] | GI50 [10] | GI50 [11] | GI50 [12] | GI50 [13] | GI50 [14] | GI50 [15] | GI50 [16] | GI50 [17] | GI50 [18] | GI50 [19] | GI50 [20]
CCOC(=O)C1=C(C)N(c2ccc(Cl)cc2)C2(O)C=CC(=O)C3C(=O)N(c4ccccc4)C(=O)C132 (stereo not given) | 2.83 µM (inactive) | 0.476 µM (active) | 1.87 µM (inactive) | 1.91 µM (inactive) | 1.82 | 2.76 µM (inactive) | 0.0649 µM (active) | 1.82 µM (inactive) | 1.36 µM (inactive) | 2.23 µM (inactive) | 1.6 µM (inactive) | 2.3 µM (inactive) | 2.01 µM (inactive) | 1.76 µM (inactive) | 2.19 µM (inactive) | 1.78 µM (inactive) | 2.3 µM (inactive) | 2.3 µM (inactive) | 1.8 µM (inactive) | 1.59 µM (inactive)
CC(=O)/C(=C(/Br)I)c1ccccc1 | 20 µM (inactive) | 1.58 µM (inactive) | 15.8 µM (inactive) | 12.6 µM (inactive) | 4.32 | 1.95 µM (inactive) | 10.5 µM (inactive) | 4.06 µM (inactive) | 9.84 µM (inactive) | 3.01 µM (inactive) | 1.73 µM (inactive) | 20.3 µM (inactive) | 18.1 µM (inactive) | 3.36 µM (inactive) | 15.5 µM (inactive) | 4.82 µM (inactive) | 5.26 µM (inactive) | 3.48 µM (inactive) | 21 µM (inactive) | 12.8 µM (inactive)
O=CN1CCN(C(=O)c2ccc(Cl)cc2Cl)C1=S | 67.3 µM (inactive) | 27.5 µM (inactive) | 84.5 µM (inactive) | > 100 µM (inactive) | 78.7 | 20.4 µM (inactive) | 34.2 µM (inactive) | > 100 µM (inactive) | 32.3 µM (inactive) | 43.9 µM (inactive) | > 100 µM (inactive) | > 100 µM (inactive) | > 100 µM (inactive) | 29.3 µM (inactive) | > 100 µM (inactive) | > 100 µM (inactive) | 43 µM (inactive) | 32.4 µM (inactive) | 78.7 µM (inactive) | > 100 µM (inactive)
c1ccc2c(c1)Oc1cccc3cccc-2c13 | > 100 µM (inactive) | > 100 µM (inactive) | > 100 µM (inactive) | > 100 µM (inactive) | 98.4 | > 100 µM (inactive) | > 100 µM (inactive) | > 100 µM (inactive) | > 100 µM (inactive) | > 100 µM (inactive) | 98.2 µM (inactive) | > 100 µM (inactive) | > 100 µM (inactive) | > 100 µM (inactive) | > 100 µM (inactive) | > 100 µM (inactive) | > 100 µM (inactive) | > 100 µM (inactive) | > 100 µM (inactive) | > 100 µM (inactive)
COc1ccccc1C(=O)NCC1CCCN2CCCCC12 (stereo not given) | 93.3 µM (inactive) | > 100 µM (inactive) | > 100 µM (inactive) | > 100 µM (inactive) | > 100 | > 100 µM (inactive) | > 100 µM (inactive) | > 100 µM (inactive) | > 100 µM (inactive) | > 100 µM (inactive) | > 100 µM (inactive) | > 100 µM (inactive) | > 100 µM (inactive) | > 100 µM (inactive) | 1.24 µM (inactive) | > 100 µM (inactive) | > 100 µM (inactive) | > 100 µM (inactive) | > 100 µM (inactive) | > 100 µM (inactive)
O=c1cc(/N=N\c2ccc(Br)cc2)[nH]c(=S)[nH]1 | > 100 µM (inactive) | 14.6 µM (inactive) | 61.1 µM (inactive) | 19.8 µM (inactive) | 14.9 | 19.3 µM (inactive) | 19.5 µM (inactive) | 18.4 µM (inactive) | 15.3 µM (inactive) | 19.7 µM (inactive) | 24.5 µM (inactive) | 32.7 µM (inactive) | 25.6 µM (inactive) | 16.9 µM (inactive) | > 100 µM (inactive) | 11.9 µM (inactive) | 96.4 µM (inactive) | 17.3 µM (inactive) | 17.3 µM (inactive) | 78.3 µM (inactive)
COC1CC(NC(=O)C(F)(F)F)C(OC(C)=O)C(C)O1 (stereo not given) | > 100 µM (inactive) | > 100 µM (inactive) | > 100 µM (inactive) | > 100 µM (inactive) | > 100 | > 100 µM (inactive) | 72.1 µM (inactive) | > 100 µM (inactive) | > 100 µM (inactive) | > 100 µM (inactive) | > 100 µM (inactive) | > 100 µM (inactive) | > 100 µM (inactive) | > 100 µM (inactive) | > 100 µM (inactive) | > 100 µM (inactive) | > 100 µM (inactive) | > 100 µM (inactive) | > 100 µM (inactive) | > 100 µM (inactive)
CC1=NN(C(=O)c2ccccc2O)C(c2ccccc2Cl)C1C(=O)Nc1ccccc1 (stereo not given) | < 0.0158 µM (active) | 0.0288 µM (active) | < 0.0291 µM (active) | 1.7 µM (inactive) | 0.0303 | 0.161 µM (active) | > 100 µM (inactive) | 2.96 µM (inactive) | 0.0728 µM (active) | < 0.0195 µM (active) | < 0.0302 µM (active) | 0.0964 µM (active) | 0.458 µM (active) | 0.0553 µM (active) | 0.0975 µM (active) | 4.74 µM (inactive) | 0.0224 µM (active) | 0.0435 µM (active) | 3.1 µM (inactive) | < 0.0197 µM (active)
COCc1nc(N)nc(N2N=C(C)CC2(C)C)n1 | > 100 µM (inactive) | > 100 µM (inactive) | > 100 µM (inactive) | > 100 µM (inactive) | > 100 | > 100 µM (inactive) | > 100 µM (inactive) | > 100 µM (inactive) | > 100 µM (inactive) | > 100 µM (inactive) | > 100 µM (inactive) | > 100 µM (inactive) | > 100 µM (inactive) | > 100 µM (inactive) | > 100 µM (inactive) | > 100 µM (inactive) | > 100 µM (inactive) | > 100 µM (inactive) | > 100 µM (inactive) | > 100 µM (inactive)
Oc1cccc2cc(Cl)cnc12 | 7.08 µM (inactive) | 2.45 µM (inactive) | 31.5 µM (inactive) | 4.88 µM (inactive) | 3.82 | 1.08 µM (active) | 43.2 µM (inactive) | 28.2 µM (inactive) | 5.04 µM (inactive) | 14.7 µM (inactive) | 3.78 µM (inactive) | 6.95 µM (inactive) | 28 µM (inactive) | 12.3 µM (inactive) | 3.39 µM (inactive) | 40.8 µM (inactive) | 7.33 µM (inactive) | 4.42 µM (inactive) | 39.5 µM (inactive) | 5.51 µM (inactive)
COC(=O)c1ccc(CCc2cc(O)ccc2O)cc1 | 26.8 µM (inactive) | 0.67 µM (active) | 32.4 µM (inactive) | 13.3 µM (inactive) | 8.79 | 0.959 µM (active) | 9.25 µM (inactive) | 28.4 µM (inactive) | 6.12 µM (inactive) | 6.08 µM (inactive) | 1.77 µM (inactive) | 37 µM (inactive) | 19.2 µM (inactive) | 7.89 µM (inactive) | 21.3 µM (inactive) | 18.8 µM (inactive) | 7.98 µM (inactive) | 2.6 µM (inactive) | 22.4 µM (inactive) | 14.8 µM (inactive)
